Key:
[1] = test system: BT474 cells (AXL–); test: Dose response cell viability assay (PrestoBlue, day 5); format: cell-based; conditions: Homo sapiens, BT-474, 120 h, PrestoBlue at day 5
[2] = test system: AXL-overexpressing mouse breast cancer cells (AXL+); test: as above; format: cell-based; conditions: PrestoBlue at day 5
[3] = target: AKT; test: Kinase IC50, 33P radioisotope assay (Reaction Biology); format: biochemical; conditions: recombinant kinase, 10 μM ATP
Description: The panel, which included the three members of the TAM family, was selected based on the selectivity profile frequently found for other AXL inhibitors.[9] Kinase inhibition studies were performed by Reaction Biology Corporation, USA, by measuring ^33P incorporation on the corresponding kinase substrate relative to DMSO.
To understand how these structural changes had affected the kinase selectivity of the new compounds, 12a–d were screened against the 12-member panel of kinases used for previous hits. As before, kinase inhibition screenings were performed using radioisotope based methods by Reaction Biology Corporation.
(§1) 6.2. Dose response cell viability assay
(§2) with 95 µl of fresh medium.
(§3) a separate 96-well intermediate plate.
(§4) containing cells. […] After 5 d, PrestoBlue™ cell
(§5) 6.3. Kinase screening assay

[4] = test system: MOLM-13 cells; test: Dose response cell viability assay (PrestoBlue, day 5); format: cell-based; conditions: Homo sapiens, MOLM-13, 120 h; PrestoBlue at day 5
Description: as §1, §2, §3, §4, §5

[5] = test system: MV4-11 cells; test: as above; format: cell-based; conditions: Homo sapiens, MV4-11, 120 h; PrestoBlue at day 5
Description: as §1, §2, §3, §4, §5

[6] = target: T1, AXL (Homo sapiens, UniProt P30530); conditions: cited from earlier work
T1 construct: purchased Reaction Biology Corporation
T1 sequence (P30530 26-894): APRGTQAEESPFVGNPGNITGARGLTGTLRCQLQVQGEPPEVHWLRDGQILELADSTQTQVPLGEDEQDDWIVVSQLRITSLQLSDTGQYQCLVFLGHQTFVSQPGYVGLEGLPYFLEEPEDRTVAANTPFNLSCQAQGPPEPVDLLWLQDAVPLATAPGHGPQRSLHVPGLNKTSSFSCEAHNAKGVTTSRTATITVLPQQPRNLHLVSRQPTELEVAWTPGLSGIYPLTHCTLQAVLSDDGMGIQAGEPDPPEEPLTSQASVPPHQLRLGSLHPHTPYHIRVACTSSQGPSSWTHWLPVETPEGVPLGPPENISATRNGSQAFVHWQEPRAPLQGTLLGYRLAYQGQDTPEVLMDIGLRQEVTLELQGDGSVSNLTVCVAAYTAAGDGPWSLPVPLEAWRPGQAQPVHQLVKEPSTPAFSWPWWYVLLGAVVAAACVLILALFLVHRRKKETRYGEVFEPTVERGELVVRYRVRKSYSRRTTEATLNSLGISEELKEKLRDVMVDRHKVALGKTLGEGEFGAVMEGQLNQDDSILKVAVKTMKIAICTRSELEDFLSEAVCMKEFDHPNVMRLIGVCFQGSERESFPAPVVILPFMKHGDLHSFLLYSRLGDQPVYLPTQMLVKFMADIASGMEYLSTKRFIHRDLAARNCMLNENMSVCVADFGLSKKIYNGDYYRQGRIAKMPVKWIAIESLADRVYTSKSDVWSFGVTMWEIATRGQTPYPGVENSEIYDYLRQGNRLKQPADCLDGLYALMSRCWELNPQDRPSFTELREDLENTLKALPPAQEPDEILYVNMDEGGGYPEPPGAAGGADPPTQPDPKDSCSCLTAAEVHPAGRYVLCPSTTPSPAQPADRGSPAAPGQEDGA

EC50 [1]	EC50 ([2]; Mus musculus, 120 h)	IC50 [3]	SMILES	also measured
26 µM	14.1 µM	–	CNc1ncc2c(-c3ccc(OC)c(OC)c3)nn(CC3CCCC3)c2n1 [Compound 7b]	–
> 100 µM	> 100 µM	–	CCN1CCN(c2ccc(-c3nn(Cc4cn(Cc5ccccc5)nn4)c4nc(NC)ncc34)cn2)CC1 [Compound 12c]	–
–	–	> 10 µM	Nc1nc(Nc2ccc3c(c2)CC[C@@H](N2CCCC2)CC3)nn1-c1cc2c(nn1)-c1ccccc1CCC2 [BGB324, reference compound]	–
24.7 µM	16.3 µM	–	CNc1ncc2c(-c3cccc(C(N)=O)c3)nn(CC3CCCC3)c2n1 [Compound 7e]	–
3.62 µM	1.47 µM	> 10 µM	CNc1ncc2c(-c3ccc(N4CCNCC4)nc3)nn(Cc3cn(Cc4ccccc4)nn3)c2n1 [Compound 10a]	–
60 µM	65.8 µM	–	CNc1ncc2c(-c3ccc(F)cc3)nn(CC3OCCO3)c2n1 [Compound 7i]	–
–	–	> 10 µM	CCN1CCN(c2ccc(-c3nn(CC4CCCC4)c4nc(NC)ncc34)cn2)CC1 [Compound 13c]	EC50 [4]: 0.94 µM; EC50 [5]: 3.49 µM
32.3 µM	39.7 µM	> 10 µM	CNc1ncc2c(-c3ccc(N4CCNCC4)cc3)nn(Cc3cn(Cc4ccccc4)nn3)c2n1 [Compound 12a]	–
> 100 µM	> 100 µM	–	CNc1ccc(-c2nn(Cc3cn(Cc4ccccc4)nn3)c3nc(NC)ncc23)cn1 [Compound 12f]	EC50 (AXL+ cells) [2]: completely inactive
20.5 µM	–	> 10 µM	CNc1ncc2c(-c3ccc(N4CCNCC4)nc3)nn(CC3OCCO3)c2n1 [Compound 7g]	EC50 [2]: 10.3 µM
12.4 µM	9.16 µM	> 10 µM	CNc1ncc2c(-c3ccc(N4CCN(C(=O)C(C)(C)C)CC4)nc3)nn(Cc3cn(Cc4ccccc4)nn3)c2n1 [Compound 12d]	–
6.49 µM	1.83 µM	> 10 µM	CNc1ncc2c(-c3ccc(N4CCNCC4)nc3)nn(Cc3cn(-c4ccsc4C(=O)OC)nn3)c2n1 [Compound 10d]	–
–	–	> 10 µM	CNc1ncc2c(-c3ccc(N4CCN(C(=O)C(C)(C)C)CC4)nc3)nn(CC3CCCC3)c2n1 [Compound 13d]	EC50 [4]: 1.3 µM; EC50 [5]: 1.44 µM
–	–	–	COc1cc2c(Oc3ccc(NC(=O)C4(C(=O)Nc5ccc(F)cc5)CC4)cc3F)ccnc2cc1OCCCN1CCOCC1 [foretinib]	reported to inhibit AXL at [6]: 11 nM
16.8 µM	3.7 µM	–	CNc1ncc2c(-c3ccc(N4CCNCC4)nc3)nn(Cc3cn(-c4ccc(OC)cc4)nn3)c2n1 [Compound 10f]	–
18.4 µM	34.1 µM	–	CNc1ncc2c(-c3ccc(N4CCNCC4)nc3)nn(Cc3cn(C4CCCC4O)nn3)c2n1 (centres unmarked) [Compound 10b]	–
13.1 µM	–	> 10 µM	CNc1ncc2c(-c3ccc(OC)cc3)nn(CC3OCCO3)c2n1 [Compound 7h]	EC50 [2]: 5.02 µM
–	–	> 10 µM	CNc1ncc2c(-c3ccc(N4CCN(C)CC4)nc3)nn(CC3CCCC3)c2n1 [Compound 13b]	EC50 [4]: 0.04 µM; EC50 [5]: 0.49 µM
24 µM	14.1 µM	–	CNc1ncc2c(-c3ccc(OC)cc3)nn(CC3CCCC3)c2n1 [Compound 7a]	–
25.7 µM	6.91 µM	> 10 µM	CNc1ncc2c(-c3ccc(N4CCN(C)CC4)nc3)nn(Cc3cn(Cc4ccccc4)nn3)c2n1 [Compound 12b]	–
–	–	> 10 µM	CNc1ncc2c(-c3ccc(N4CCNCC4)nc3)nn(CC3CCCC3)c2n1 [Compound 7f]	–
